Test results taken from the supplement of paper PMC10733146.

Legend:
Experiment in all cases: viability relative to DMSO control (fraction); higher = less drug effect (more viable cells)
Details in all cases: 48 h
[1] = system: primary FL patient cells (S022)
Method in brief: (§1)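 In 384-well plates with compounds pre-plated at five concentrations (one well per concentration), primary mononuclear tumour cells were plated at 4 × 10^4 cells per well. The cells came from blood or bone marrow by Ficoll isolation or from processed lymph node, and were used fresh or cryopreserved. Culture ran for 48 h at 37 °C and 5% CO2 in RPMI-1640 containing penicillin/streptomycin, L-glutamine and human serum. Viability was read as CellTiter-Glo luminescence, normalised to the median of 16 inner DMSO wells.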

[2] = system: primary FL patient cells (S087)
Method in brief: as §1

[3] = system: primary AML patient cells (S056)
Method in brief: as §1

[4] = system: primary MCL patient cells (S063)
Method in brief: as §1

[5] = system: primary AML patient cells (S085)
Method in brief: as §1

[6] = system: primary CLL patient cells (S031)
Method in brief: as §1

[7] = system: primary MCL patient cells (S041)
Method in brief: as §1

[8] = system: primary AML patient cells (S079)
Method in brief: as §1

[9] = system: primary ALL patient cells (S088)
Method in brief: as §1

[10] = system: primary AML patient cells (S006)
Method in brief: as §1

[11] = system: primary ALL patient cells (S048)
Method in brief: as §1

[12] = system: primary AML patient cells (S011)
Method in brief: as §1

[13] = system: primary AML patient cells (S019)
Method in brief: as §1

[14] = system: primary AML patient cells (S012)
Method in brief: as §1

## Nc1ncn([C@@H]2O[C@H](CO)[C@@H](O)[C@H]2O)c(=O)n1 [Azacytidine (Vidaza)]
[1]; 0.032 µM
  viability: 1.03
[1]; 0.16 µM
  viability: 1
[1]; 0.8 µM
  viability: 1.01
[1]; 4 µM
  viability: 0.949
[1]; 20 µM
  viability: 0.624
[2]; 0.032 µM
  viability: 1.1
[2]; 0.16 µM
  viability: 1.06
[2]; 0.8 µM
  viability: 0.997
[2]; 4 µM
  viability: 0.906
[2]; 20 µM
  viability: 0.678
[3]; 0.032 µM
  viability: 0.987
[3]; 0.16 µM
  viability: 0.997
[3]; 0.8 µM
  viability: 0.467
[3]; 4 µM
  viability: 0.0878
[3]; 20 µM
  viability: 0.078
[4]; 0.032 µM
  viability: 1.04
[4]; 0.16 µM
  viability: 1.07
[4]; 0.8 µM
  viability: 1.03
[4]; 4 µM
  viability: 0.839
[4]; 20 µM
  viability: 0.173
[5]; 0.032 µM
  viability: 1.22
[5]; 0.16 µM
  viability: 0.976
[5]; 0.8 µM
  viability: 0.638
[5]; 4 µM
  viability: 0.14
[5]; 20 µM
  viability: 0.0812
[6]; 0.032 µM
  viability: 1.08
[6]; 0.16 µM
  viability: 1.01
[6]; 0.8 µM
  viability: 0.989
[6]; 4 µM
  viability: 0.539
[6]; 20 µM
  viability: 0.0698
[7]; 0.032 µM
  viability: 1.04
[7]; 0.16 µM
  viability: 1.03
[7]; 0.8 µM
  viability: 0.812
[7]; 4 µM
  viability: 0.151
[7]; 20 µM
  viability: 0.0515
[8]; 0.032 µM
  viability: 0.972
[8]; 0.16 µM
  viability: 1.09
[8]; 0.8 µM
  viability: 0.942
[8]; 4 µM
  viability: 0.671
[8]; 20 µM
  viability: 0.304
[9]; 0.032 µM
  viability: 0.958
[9]; 0.16 µM
  viability: 1.06
[9]; 0.8 µM
  viability: 0.934
[9]; 4 µM
  viability: 0.552
[9]; 20 µM
  viability: 0.233
[10]; 0.032 µM
  viability: 1.07
[10]; 0.16 µM
  viability: 0.973
[10]; 0.8 µM
  viability: 0.426
[10]; 4 µM
  viability: 0.0789
[10]; 20 µM
  viability: 0.0614
[11]; 0.032 µM
  viability: 0.926
[11]; 0.16 µM
  viability: 0.989
[11]; 0.8 µM
  viability: 0.695
[11]; 4 µM
  viability: 0.239
[11]; 20 µM
  viability: 0.102
[12]; 0.032 µM
  viability: 1.05
[12]; 0.16 µM
  viability: 1.29
[12]; 0.8 µM
  viability: 0.811
[12]; 4 µM
  viability: 0.32
[12]; 20 µM
  viability: 0.134
[13]; 0.032 µM
  viability: 0.935
[13]; 0.16 µM
  viability: 1.34
[13]; 0.8 µM
  viability: 0.986
[13]; 4 µM
  viability: 0.522
[13]; 20 µM
  viability: 0.308
[14]; 0.032 µM
  viability: 0.958
[14]; 0.16 µM
  viability: 1.01
[14]; 0.8 µM
  viability: 1.04
[14]; 4 µM
  viability: 0.92
[14]; 20 µM
  viability: 0.766

## CNC(=O)c1cc(Oc2ccc(NC(=O)Nc3ccc(Cl)c(C(F)(F)F)c3)cc2)ccn1 [Sorafenib]
[1]; 0.024 µM
  viability: 1.05
[1]; 0.12 µM
  viability: 1.01
[1]; 0.6 µM
  viability: 1.06
[1]; 3 µM
  viability: 0.999
[1]; 15 µM
  viability: 1
[2]; 0.024 µM
  viability: 1.01
[2]; 0.12 µM
  viability: 1.04
[2]; 0.6 µM
  viability: 1.08
[2]; 3 µM
  viability: 1.06
[2]; 15 µM
  viability: 1.04
[3]; 0.024 µM
  viability: 0.642
[3]; 0.12 µM
  viability: 0.488
[3]; 0.6 µM
  viability: 0.443
[3]; 3 µM
  viability: 0.453
[3]; 15 µM
  viability: 0.374
[4]; 0.024 µM
  viability: 0.98
[4]; 0.12 µM
  viability: 1.02
[4]; 0.6 µM
  viability: 0.973
[4]; 3 µM
  viability: 1.06
[4]; 15 µM
  viability: 1.02
[5]; 0.024 µM
  viability: 1.09
[5]; 0.12 µM
  viability: 1.06
[5]; 0.6 µM
  viability: 0.916
[5]; 3 µM
  viability: 1.12
[5]; 15 µM
  viability: 1.03
[6]; 0.024 µM
  viability: 1.01
[6]; 0.12 µM
  viability: 1.02
[6]; 0.6 µM
  viability: 1.13
[6]; 3 µM
  viability: 1.02
[6]; 15 µM
  viability: 1.04
[7]; 0.024 µM
  viability: 0.981
[7]; 0.12 µM
  viability: 1.01
[7]; 0.6 µM
  viability: 1.04
[7]; 3 µM
  viability: 1.05
[7]; 15 µM
  viability: 0.95
[8]; 0.024 µM
  viability: 0.99
[8]; 0.12 µM
  viability: 1.02
[8]; 0.6 µM
  viability: 1.04
[8]; 3 µM
  viability: 1.1
[8]; 15 µM
  viability: 0.791
[9]; 0.024 µM
  viability: 0.811
[9]; 0.12 µM
  viability: 0.896
[9]; 0.6 µM
  viability: 0.844
[9]; 3 µM
  viability: 0.996
[9]; 15 µM
  viability: 1.31
[10]; 0.024 µM
  viability: 0.709
[10]; 0.12 µM
  viability: 0.508
[10]; 0.6 µM
  viability: 0.413
[10]; 3 µM
  viability: 0.423
[10]; 15 µM
  viability: 0.378
[11]; 0.024 µM
  viability: 0.874
[11]; 0.12 µM
  viability: 1
[11]; 0.6 µM
  viability: 0.889
[11]; 3 µM
  viability: 0.894
[11]; 15 µM
  viability: 1.03
[12]; 0.024 µM
  viability: 0.966
[12]; 0.12 µM
  viability: 1.02
[12]; 0.6 µM
  viability: 0.972
[12]; 3 µM
  viability: 0.875
[12]; 15 µM
  viability: 0.715
[13]; 0.024 µM
  viability: 0.833
[13]; 0.12 µM
  viability: 1.18
[13]; 0.6 µM
  viability: 0.846
[13]; 3 µM
  viability: 1.11
[13]; 15 µM
  viability: 0.835
[14]; 0.024 µM
  viability: 0.958
[14]; 0.12 µM
  viability: 0.991
[14]; 0.6 µM
  viability: 1.05
[14]; 3 µM
  viability: 1.01
[14]; 15 µM
  viability: 1.09
